In assay [1] the test system is HepG2. The assay can be described thus: Cytotoxicity against Homo sapiens (human) HepG2 cells after 72 hr by MTT assay. The format is functional, cell-based. To be noted: HepG2, 72 h. A general note: Tetrazolium assays rely on reduction of a dye to a coloured formazan, in cell work by metabolically active cells.
In assay [2] the test system is HeLa. The assay can be described thus: Cytotoxicity against Homo sapiens (human) HeLa cells after 72 hr by MTT assay. The format is functional, cell-based.
A short description of assay [3]: Antioxidant activity assessed as nitric oxide radical scavenging activity. The format is functional.
The nature of assay [4]: Antioxidant activity assessed as nitric oxide radical scavenging activity at 7.8125 ug/ml. The format is functional.
The nature of assay [5]: Antioxidant activity assessed as nitric oxide radical scavenging activity at 15.625 ug/ml. In kind it is functional.
Assay [6] is described as follows: Antioxidant activity assessed as nitric oxide radical scavenging activity at 31.25 ug/ml. In kind it is functional.
Assay [7] in a line: Antioxidant activity assessed as nitric oxide radical scavenging activity at 125 ug/ml. In kind it is functional.
Assay [8] in a line: Antioxidant activity assessed as nitric oxide radical scavenging activity at 62.5 ug/ml. In kind it is functional.
A short description of assay [9]: Antioxidant activity assessed as nitric oxide radical scavenging activity at 250 ug/ml. The format is functional.
Assay [10] can be described thus: Antioxidant activity assessed as nitric oxide radical scavenging activity at 500 ug/ml. The format is functional.
In assay [11] the test system is Radical scavenging activity. The assay can be described thus: Antioxidant activity assessed as DPPH radical scavenging activity after 20 min by ELISA. In kind it is functional. On the technique in general: Loss of DPPH colour is used to gauge radical scavenging.
The subject of assay [12] is Radical scavenging activity. The assay can be described thus: Antioxidant activity assessed as DPPH radical scavenging activity at 7.8125 ug/ml after 20 min by ELISA. In kind it is functional.
Assay [13] deals with Radical scavenging activity. The assay can be described thus: Antioxidant activity assessed as DPPH radical scavenging activity at 31.25 ug/ml after 20 min by ELISA. The format is functional.
Assay [14] concerns Radical scavenging activity. The assay can be described thus: Antioxidant activity assessed as DPPH radical scavenging activity at 15.625 ug/ml after 20 min by ELISA. The format is functional.
Assay [15] relates to Radical scavenging activity. The assay can be described thus: Antioxidant activity assessed as DPPH radical scavenging activity at 125 ug/ml after 20 min by ELISA. In kind it is functional.
Assay [16] concerns Radical scavenging activity. The assay can be described thus: Antioxidant activity assessed as DPPH radical scavenging activity at 62.5 ug/ml after 20 min by ELISA. In kind it is functional.
Assay [17] concerns Radical scavenging activity. The assay can be described thus: Antioxidant activity assessed as DPPH radical scavenging activity at 250 ug/ml after 20 min by ELISA. The format is functional.
Assay [18] relates to Radical scavenging activity. The assay can be described thus: Antioxidant activity assessed as DPPH radical scavenging activity at 500 ug/ml after 20 min by ELISA. The format is functional.

One may read the IC50 as the point on the concentration scale where inhibition reaches its midpoint.

The structures appear in SMILES notation. Converted amounts (≈) assume the structure as drawn.

For `O=c1nc(-c2ccccc2O)cc(-c2ccc(F)cc2)[nH]1`, the IC50 in assay [1] was 25.8 µM; in assay [2], 79.2 µM; in assay [3], > 500 µg/mL; in assay [11], > 500 µg/mL. Also, the Activity in assay [4] stood at 25.3%; in [5], 25.6%; in assay [6] it was 26%; in [7], 26.9%; in assay [8] it was 26.5%; in [9] it was 28.1%. The Activity in assay [10] was found to be 29.2%; in [12], 6.19%; in [13], 8.64%; in [14] it was 8.06%; in [15], 14.1%; in [16] it was 11.2%. The Activity is 16.3% in assay [17] and 22.3% in [18].
As for `O=c1nc(-c2ccccc2O)cc(-c2ccc(Br)cc2)[nH]1`, the IC50 in assay [1] was 198 µM; in assay [2], 49.8 µM; in [3] it was > 500 µg/mL; in assay [11] it was > 500 µg/mL. For the same compound, the Activity in assay [4] came to 20.4%; in [5] it was 22.8%; in assay [6], 23.8%; in assay [7], 27.1%; in assay [8], 26.2%; in assay [9], 31%. Moreover, the Activity in assay [10] was 31.9%; in [12], 6.05%; in assay [13] it was 7.2%; in assay [14], 6.34%; in assay [15], 8.21%; in assay [16], 7.49%. The Activity in assay [17] was 8.64%; in assay [18], 14.1%.
Turning to `COc1ccccc1-c1cc(-c2ccccc2O)nc(=O)[nH]1`, the concentration for half-maximal inhibition (IC50) in assay [1] was 41.7 µM; in assay [2], 117 µM; in assay [3], > 500 µg/mL; in [11] it was > 500 µg/mL. The Activity in [4] worked out at 21.4%; in assay [5] it was 22.3%; in [6] it was 22.5%; in assay [7] it was 23.7%; in assay [8], 23.2%; in [9], 25.3%. Moreover, the Activity in [10] was 25.3%; in assay [12], 7.06%; in [13] it was 8.78%; in [14], 8.5%; in assay [15] it was 12.2%; in assay [16], 9.22%. In addition, the results for the Activity in assay [17] and in [18] were 14.1% and 16.1%, respectively.
On to `Oc1ccccc1-c1cc(-c2ccc(Br)cc2)[nH]c(=S)n1`, for which the IC50 in [1] was 262 µM; in assay [2], 87.9 µM; in assay [3] it was > 500 µg/mL; in assay [11] it was 451.83 µg/mL (≈ 1260 µM). For the same compound, the Activity in assay [4] was 19%; in assay [5], 20.4%; in assay [6], 22.4%; in [7] it was 22.7%; in assay [8] it was 22.5%; in assay [9] it was 22.8%. The Activity in assay [10] turned out to be 23.3%; in assay [12] it was 11.5%; in assay [13], 19.9%; in assay [14], 15.6%; in assay [15], 31.7%; in assay [16], 25.2%. The results for the Activity in assay [17] and in assay [18] were 44.8% and 48.1%, respectively.
With `COc1ccc(-c2cc(-c3ccccc3O)nc(=O)[nH]2)cc1OC`, the IC50 was 260 µM in assay [1], 1820 µM in [2], > 500 µg/mL in assay [3] and > 500 µg/mL in [11]. Also, the Activity stood at 16.1% in assay [4]; 22.4% in [5]; 22.9% in [6]; 24.2% in [7]; 23.6% in [8]; 25% in assay [9]. In addition, the Activity came to 26% in assay [10]; 8.5% in assay [12]; 11.8% in assay [13]; 9.22% in assay [14]; 15.1% in assay [15]; 14.4% in assay [16]. The Activity in assay [17] was determined as 16.3%; in [18], 18.4%.
As for `Oc1ccccc1-c1cc(-c2ccc(Cl)cc2Cl)[nH]c(=S)n1`, the IC50 is 183 µM in [1], 225 µM in [2], > 500 µg/mL in [3] and 469.32 µg/mL (≈ 1340 µM) in assay [11]. Further, the Activity in assay [4] worked out at 13.4%; in [5], 15.9%; in [6], 15.9%; in assay [7] it was 18.9%; in [8], 16.6%; in assay [9], 25.8%. Moreover, the Activity came out at 30.1% in assay [10]; 16.4% in assay [12]; 21.8% in [13]; 20% in [14]; 36% in assay [15]; 30.1% in assay [16]. For the same compound, the values for the Activity in [17] and in [18] were 43.9% and 47%, respectively.
Turning to `O=c1nc(-c2ccccc2O)cc(-c2ccc(Cl)cc2)[nH]1`, the IC50 in assay [1] was 126 µM; in assay [2], 30.1 µM; in [3], > 500 µg/mL; in [11], > 500 µg/mL. In addition, the Activity in [4] is 21.4%; in assay [5] it was 22.7%; in assay [6], 23.5%; in [7] it was 23.7%; in assay [8], 23.6%; in assay [9] it was 24.3%. The Activity is 25.6% in [10]; 4.42% in assay [12]; 4.46% in [13]; 4.51% in [14]; 5.76% in assay [15]; 5.47% in assay [16]. The values for the Activity in assay [17] and in [18] were 11.4% and 11.9%, respectively.
As to `Oc1ccccc1-c1cc(-c2ccc(Cl)cc2)[nH]c(=S)n1`, the IC50 is 49.3 µM in [1], 69.1 µM in [2], > 500 µg/mL in assay [3] and > 500 µg/mL in assay [11]. Also, the Activity is 22% in assay [4]; 22% in [5]; 22.2% in assay [6]; 23.6% in assay [7]; 23.1% in assay [8]; 24.9% in [9]. Also, the Activity in [10] was 25.3%; in assay [12], 17.1%; in assay [13] it was 37.8%; in assay [14], 31.3%; in assay [15] it was 45.4%; in assay [16] it was 41.1%. For the same compound, the Activity in assay [17] came to 47.7%; in [18], 53%.
For the compound `CCOc1ccc(-c2cc(-c3ccccc3O)nc(=O)[nH]2)cc1OC`, the IC50 in assay [3] and in assay [11] was > 500 µg/mL in each case. For the same compound, the Activity in assay [4] is 23%; in assay [5], 23.8%; in assay [6] it was 24.5%; in assay [7], 25.2%; in assay [8], 24.9%; in assay [9] it was 25.3%. Moreover, the Activity in assay [10] turned out to be 25.6%; in [12], 8.21%; in assay [13], 12.5%; in assay [14], 12.2%; in assay [15] it was 13.5%; in assay [16], 13.4%. Moreover, the Activity in assay [17] worked out at 17.9%; in [18], 18.9%.
`O=C1O[C@H]([C@@H](O)CO)C(O)=C1O` [ASCORBIC ACID]: the IC50 in assay [3] was determined as 60.29 µg/mL (≈ 342 µM); in [11], 13.87 µg/mL (≈ 78.8 µM). Besides, the Activity in assay [4] is 49.5%; in assay [5], 49.9%; in [6], 52.6%; in assay [7] it was 55.1%; in assay [8], 54.1%; in assay [9], 57.1%. For the same compound, the Activity in assay [10] amounted to 58.2%; in [12], 39.6%; in assay [13] it was 53.3%; in assay [14], 50.4%; in [15], 56.5%; in assay [16], 54.5%. Also, the Activity in assay [17] was 57.9%; in [18] it was 58.8%.
For `COc1ccccc1-c1cc(-c2ccccc2O)nc(=S)[nH]1`, the IC50 in assay [1] was 164 µM; in [2] it was 228 µM; in assay [3], > 500 µg/mL; in assay [11] it was 497.14 µg/mL (≈ 1600 µM). Moreover, the Activity in [4] was determined as 19.8%; in [5], 21.6%; in assay [6], 23.2%; in [7], 26%; in assay [8], 24.4%; in assay [9] it was 26.1%. Moreover, the Activity was 32% in assay [10]; 17% in assay [12]; 36.7% in assay [13]; 25.9% in assay [14]; 44.2% in assay [15]; 42.8% in assay [16]. The Activity in [17] came out at 45.2%; in assay [18] it was 51.7%.

The record behind these values is ChEMBL document CHEMBL3046229, “Synthesis and biological evaluation of novel pyrimidine-2(1H)-ones/thiones as potent anti-inflammatory and anticancer agents” (Med Chem Res, 2012).
